What was measured:
[1] = tested on: SH-SY5Y human neuroblastoma cells; conditions: for CC2 (cytotoxic concentration): H2O2-treated cells, viability below 80%; for CC1 (cytotoxic concentration): absence of H2O2, viability below 80%
Description: Hydrogen peroxide (H2O2) is a major ROS (reactive oxidative species), which causes oxidative stress, and can induce apoptosis in many different cell types. One of the CNS drug design strategies is to use compounds with antioxidant properties as a possible treatment of both acute and chronic neurodegenerative diseases (Kang et al. Bioorganic & Medicinal Chemistry Letters, 2004, 14, 2261-2264). This involves testing the compounds of this invention for their protective effect against oxidative stress-induced cell death in SH-SY5Y human neuroblastoma cells. SH-SY5Y human neuroblastoma cells were cultured in DMEM (ATCC)/F12 (Cellgro) with 10% FBS. The cells were plated at 30,000 cells/cm^2 and grown for 1 day in the regular culture media prior to compound addition. Cells were routinely treated with the test compound, at a pre-determined range of concentrations, in the presence or absence of 50 μM hydrogen peroxide in a basal medium containing no FBS for 16-22 h. Cell viability was then measured using the routine MTT method (Mosmann, T., Rapid Colorimetric Assay for Cellular Growth and Survival: Application to Proliferation and Cytotoxicity Assays”. J. Immunol. Meth. 1983, 65, 55-63).
For data analysis, cell viability relative to control not treated with either H2O2 or the test compound, was plotted against the compound concentration. […] Cytotoxicity of the test compound was assessed in the absence of hydrogen peroxide.

[2] = tested on: human neuroblastoma MC-65 cells; test: cells; conditions: for EC100 / minimal effective concentration: Homo sapiens, MC65, 48 h; for EC100: read-out: EC100 (maximum effective concentration); for minimal effective concentration: read-out: TH (threshold protective concentration); for CC2 (cytotoxic concentration): MC-65, cultured without tetracycline; for CC2 (cytotoxic concentration) / CC1 (cytotoxic concentration): viability below 80%; for CC1 (cytotoxic concentration): MC-65, presence of TET
Procedure: In this assay, human neuroblastoma cells (MC-65 cells) are genetically engineered to conditionally express amyloid β peptide (Aβ). The Aβ production is suppressed by tetracycline (TET+) presence in culture medium, and its production is activated when TET is withdrawn (TET−). The activation of Aβ production results in cell death “MC-65 suicide”.
Protective effect of compounds against edogenously produced amyloid beta (Aβ) was assessed in human neuroblastoma MC-65 cells. MC-65 cells have been stably transformed to conditionally express high levels of a partial amyloid precursor (AP) fusion protein (Bryce Sopher et al., Brain Res Mol Brain Res. 1994, 207-17.). This protein is further proteolitically processed in the cells to form a set of AP-derived Aβ peptides. […] Activity of the promoter is tightly regulated by the presence of the antibiotic tetracycline (TET) in the culture medium. In the presence of TET (TET+), the promoter is in the basal state and no amyloid beta peptide is synthesized. In the absence of TET (TET−) the promoter is in induced state, resulting in the accumulation of Aβ peptides in the cells, degenerative changes in cell morphology and decreased survival.
Transfected human neuroblastoma cells (MC-65) were cultured in DMEM (ATCC) supplemented with non-essential amino acids and 10% FBS (VWR) in the presence of TET (1 μg/mL). For the experiment, the cells were plated at 35,000 cells/cm^2 and grown for 1 day in the regular culture media prior to compound addition. On the day of the assay, culture supernatant was removed from the wells and cells were thoroughly washed once with the compound incubation matrix containing no FBS and no TET. MC-65 cells were treated with a test compound at pre-determined range of concentrations in a basal medium containing no FBS and in the absence or presence of 1 μg/mL TET for approximately 48 h. Cell viability was then measured using the MTT method.
For data analysis, cell viabilities relative to the control not treated with a test compound and maintained in the presence of TET were plotted against the compound concentration. […] Cytotoxicity of the test compound was assessed in the cells maintained in the presence of TET.

Structure (SMILES) | CC2 (cytotoxic concentration) [1] [µM] | CC1 (cytotoxic concentration) [1] [µM] | EC100 [2] [µM] | minimal effective concentration [2] [µM] | CC2 (cytotoxic concentration) [2] [µM] | CC1 (cytotoxic concentration) [2] [µM]
Cc1cc(=O)c(O)c(CN2CCCCC2)n1CC(F)(F)F [Apo7071, 3-hydroxy-6-methyl-2-(piperidin-1-ylmethyl)-1-(2,2,2-trifluoroethyl)pyridin-4(1H)-one] | 80 | 20 | 10 | 1 | 20 | 40
Cc1cc(=O)c(O)c(C(N2CCN(c3ccccn3)CC2)C(F)(F)F)n1C (centres unmarked) [Apo7336, 3-hydroxy-1,6-dimethyl-2-(2,2,2-trifluoro-1-(4-(pyridin-2-yl)piperazin-1-yl)ethyl)pyridin-4(1H)-one] | 80 | 80 | 10 | 1 | 20 | 10
Cn1cc(Cl)c(=O)c(O)c1C(N1CCCCC1)C(F)(F)F (centres unmarked) [Apo7061, 5-chloro-3-hydroxy-1-methyl-2-[2,2,2-trifluoro-1-(piperidin-1-yl)ethyl]pyridin-4(1H)-one] | 10 | 10 | 10 | 1 | 20 | 40
CN1CCN(C(c2c(O)c(=O)ccn2C)C(F)(F)F)CC1 (centres unmarked) [Apo7073, 3-hydroxy-1-methyl-2-[2,2,2-trifluoro-1-(4-methylpiperazin-1-yl)ethyl]pyridin-4(1H)-one] | >640 | 40 | 10 | 0.1 | 20 | 40
CNC(=O)[C@H](C)NCc1cc(=O)c(O)c(C(O)C(F)(F)F)n1C (stereo partly drawn) [Apo7033, N-2-{[5-hydroxy-1-methyl-4-oxo-6-(2,2,2-trifluoro-1-hydroxyethyl)-1,4-dihydropyridin-2-yl]methyl}-N-methyl-L-alaninamide] | >640 | 40 | – | – | – | –
Cc1c(O)c(=O)c(C(n2ccnc2)C(F)(F)F)cn1C (centres unmarked) [Apo7055, 3-Hydroxy-1,2-dimethyl-5-[2,2,2-trifluoro-1-(1H-imidazol-1-yl)ethyl]pyridin-4(1H)-one] | >640 | 10 | 20 | 1 | 40 | 40
Cc1cc(=O)c(O)c(C(N2CCOCC2)C(F)(F)F)n1C (centres unmarked) [Apo7333, 3-hydroxy-1,6-dimethyl-2-(2,2,2-trifluoro-1-morpholinoethyl)pyridin-4(1H)-one] | 320 | 320 | 10 | 1 | 40 | 20
Cc1c(Cl)c(=O)c(O)c(C(N(C)C)C(F)(F)F)n1C (centres unmarked) [Apo7059, 3-chloro-6-[1-(dimethylamino)-2,2,2-trifluoroethyl]-5-hydroxy-1,2-dimethylpyridin-4(1H)-one] | 640 | 40 | 10 | 1 | 40 | 10
CN(C)Cc1cc(=O)c(O)c(C(O)C(F)(F)F)n1C (centres unmarked) [Apo7022, 6-[(dimethylamino)methyl]-3-hydroxy-1-methyl-2-(2,2,2-trifluoro-1-hydroxyethyl)pyridin-4(1H)-one] | 320 | 40 | 20 | 0.1 | 40 | 10
CNC(=O)[C@@H](C)NC(c1c(O)c(=O)ccn1C)C(F)(F)F (stereo partly drawn) [Apo6998, N-methyl-N2-[2,2,2-trifluoro-1-(3-hydroxy-1-methyl-4-oxo-1,4-dihydropyridin-2-yl)ethyl]-D-alaninamide] | 100 | 20 | – | – | – | –
CN(C)Cc1cc(=O)c(O)c(CC(F)(F)F)n1C [Apo7021, 6-[(dimethylamino)methyl]-3-hydroxy-1-methyl-2-(2,2,2-trifluoroethyl)pyridin-4(1H)-one] | >640 | 80 | 10 | 0.1 | 20 | 10
C#CCN(C)C(c1c(O)c(=O)ccn1C)C(F)(F)F (centres unmarked) [Apo7057, 3-hydroxy-1-methyl-2-{2,2,2-trifluoro-1-[methyl(prop-2-yn-1-yl)amino]ethyl}pyridin-4(1H)-one] | 80 | 5 | 10 | 1 | 20 | 20
Cn1ccc(=O)c(O)c1C(C(F)F)N1CCCCC1 (centres unmarked) [Apo7319, 2-(2,2-difluoro-1-(piperidin-1-yl)ethyl)-3-hydroxy-1-methylpyridin-4(1H)-one] | 320 | 320 | 10 | 1 | 40 | 40
Cc1cc(=O)c(O)c(CN2CCOCC2)n1CC(F)(F)F [Apo7434, 3-hydroxy-6-methyl-2-(morpholinomethyl)-1-(2,2,2-trifluoroethyl)pyridin-4(1H)-one] | 320 | 320 | 20 | 1 | 40 | 40
Cc1cc(=O)c(O)c(C(N2CCN(Cc3ccccc3)CC2)C(F)(F)F)n1C (centres unmarked) [Apo7334, 2-(1-(4-benzylpiperazin-1-yl)-2,2,2-trifluoroethyl)-3-hydroxy-1,6-dimethylpyridin-4(1H)-one] | 320 | 40 | 10 | 1 | 20 | 10
C=CCNC(c1c(O)c(=O)ccn1C)C(F)(F)F (centres unmarked) [Apo7075, 3-hydroxy-1-methyl-2-[2,2,2-trifluoro-1-(prop-2-en-1-ylamino)ethyl]pyridin-4(1H)-one] | >640 | 20 | 10 | 0.1 | 20 | 10
Cc1c(Cl)c(=O)c(O)c(C(O)C(F)(F)F)n1C (centres unmarked) [Apo7038, 3-chloro-5-hydroxy-1,2-dimethyl-6-(2,2,2-trifluoro-1-hydroxyethyl)pyridin-4(1H)-one] | >640 | 40 | – | – | – | –
Cc1c(O)c(=O)c(C(N2CCN(C)CC2)C(F)(F)F)cn1C.Cl (centres unmarked) [Apo7063, 3-Hydroxy-1,2-dimethyl-5-[2,2,2-trifluoro-1-(4-methylpiperazin-1-yl)ethyl]pyridin-4(1H)-one hydrochloride] | >640 | 320 | – | – | – | –

Reference: patent US9938240B2, “Fluorinated derivatives of 3-hydroxypyridin-4-ones” (Apotex Technologies Inc., priority 2009, dated 2018)
